Some results are limits rather than exact numbers.

For the test, the system named is KM12 cells. Description: Cell viability assay (CellTiter-Glo) in KM12 cells. It is filed as cell-based. To be noted: Homo sapiens, 72 h; Table 2; KM12 cell viability, CellTiter-Glo, 3 days; read-out: IC50. On the technique in general: In ATP-based viability assays light output follows the ATP content of the culture.
Usually IC50 stands for the concentration that inhibits the measured activity by half. For the compound `Cc1ncsc1-c1ccc(CNC(=O)[C@@H]2C[C@@H](O)CN2C(=O)[C@@H](NC(=O)CCCCCCCC(=O)N2CCN(c3ccc(C(=O)Nc4n[nH]c5ccc(Cc6cc(F)cc(F)c6)cc45)c(NC4CCOCC4)c3)CC2)C(C)(C)C)cc1` [CPD-037, (2S,4R)-1-((S)-2-(9-(4-(4-((5-(3,5-Difluorobenzyl)-1H-indazol-3-yl)carbamoyl)-3-((tetrahydro-2H-pyran-4-yl)amino)phenyl)piperazin-1-yl)-9-oxononanamido)-3,3-dimethylbutanoyl)-4-hydroxy-N-(4-(4-methylthiazol-5-yl)benzyl)pyrrolidine-2-carboxamide], the IC50 was 150 nM.
In the case of `Cc1ncsc1-c1ccc(CNC(=O)[C@@H]2C[C@@H](O)CN2C(=O)[C@@H](NC(=O)CCOCCOCCC(=O)N2CCN(c3ccc(C(=O)Nc4n[nH]c5ccc(Cc6cc(F)cc(F)c6)cc45)c(NC4CCOCC4)c3)CC2)C(C)(C)C)cc1` [CPD-038, (2S,4R)-1-((S)-2-(3-(2-(3-(4-(4-((5-(3,5-Difluorobenzyl)-1H-indazol-3-yl)carbamoyl)-3-((tetrahydro-2H-pyran-4-yl)amino)phenyl)piperazin-1-yl)-3-oxopropoxy)ethoxy)propanamido)-3,3-dimethylbutanoyl)-4-hydroxy-N-(4-(4-methylthiazol-5-yl)benzyl)pyrrolidine-2-carboxamide], the IC50 was 359 nM.
In the case of `Cc1ncsc1-c1ccc(CNC(=O)[C@@H]2C[C@@H](O)CN2C(=O)[C@@H](NC(=O)CCOCCOCCOCCC(=O)N2CCN(c3ccc(C(=O)Nc4n[nH]c5ccc(Cc6cc(F)cc(F)c6)cc45)c(NC4CCOCC4)c3)CC2)C(C)(C)C)cc1` [CPD-039, (2S,4R)-1-((S)-2-(tert-butyl)-16-(4-(4-((5-(3,5-Difluorobenzyl)-1H-indazol-3-yl)carbamoyl)-3-((tetrahydro-2H-pyran-4-yl)amino)phenyl)piperazin-1-yl)-4,16-dioxo-7,10,13-trioxa-3-azahexadecanoyl)-4-hydroxy-N-(4-(4-methylthiazol-5-yl)benzyl)pyrrolidine-2-carboxamide], the IC50 stood at 222 nM.
Turning to `Cc1ncsc1-c1ccc(CNC(=O)[C@@H]2C[C@@H](O)CN2C(=O)[C@@H](NC(=O)COCCOCCOCCOCCOCC(=O)N2CCN(c3ccc(C(=O)Nc4n[nH]c5ccc(Cc6cc(F)cc(F)c6)cc45)c(NC4CCOCC4)c3)CC2)C(C)(C)C)cc1` [CPD-040, (2S,4R)-1-((S)-2-(tert-butyl)-20-(4-(4-((5-(3,5-Difluorobenzyl)-1H-indazol-3-yl)carbamoyl)-3-((tetrahydro-2H-pyran-4-yl)amino)phenyl)piperazin-1-yl)-4,20-dioxo-6,9,12,15,18-pentaoxa-3-azaicosanoyl)-4-hydroxy-N-(4-(4-methylthiazol-5-yl)benzyl)pyrrolidine-2-carboxamide], the IC50 stood at 600 nM.
With `Cc1ncsc1-c1ccc(CNC(=O)[C@@H]2C[C@@H](O)CN2C(=O)[C@@H](NC(=O)CCOCCOCCOCCOCCC(=O)N2CCN(c3ccc(C(=O)Nc4n[nH]c5ccc(Cc6cc(F)cc(F)c6)cc45)c(NC4CCOCC4)c3)CC2)C(C)(C)C)cc1` [CPD-041, (2S,4R)-1-((S)-2-(tert-butyl)-19-(4-(4-((5-(3,5-Difluorobenzyl)-1H-indazol-3-yl)carbamoyl)-3-((tetrahydro-2H-pyran-4-yl)amino)phenyl)piperazin-1-yl)-4,19-dioxo-7,10,13,16-tetraoxa-3-azanonadecanoyl)-4-hydroxy-N-(4-(4-methylthiazol-5-yl)benzyl)pyrrolidine-2-carboxamide], the IC50 came out at 400 nM.
As to `Cc1ncsc1-c1ccc(CNC(=O)[C@@H]2C[C@@H](O)CN2C(=O)[C@@H](NC(=O)COCCOCC(=O)N2CCN(c3ccc(C(=O)Nc4n[nH]c5ccc(Cc6cc(F)cc(F)c6)cc45)c(NC4CCOCC4)c3)CC2)C(C)(C)C)cc1` [CPD-042, (2S,4R)-1-((S)-2-(2-(2-(2-(4-(4-((5-(3,5-Difluorobenzyl)-1H-indazol-3-yl)carbamoyl)-3-((tetrahydro-2H-pyran-4-yl)amino)phenyl)piperazin-1-yl)-2-oxoethoxy)ethoxy)acetamido)-3,3-dimethylbutanoyl)-4-hydroxy-N-(4-(4-methylthiazol-5-yl)benzyl)pyrrolidine-2-carboxamide], the IC50 is more than 1000 nM.
On to `Cc1ncsc1-c1ccc(CNC(=O)[C@@H]2C[C@@H](O)CN2C(=O)[C@@H](NC(=O)CCOCCOCCOCCOCCOCCC(=O)N2CCN(c3ccc(C(=O)Nc4n[nH]c5ccc(Cc6cc(F)cc(F)c6)cc45)c(NC4CCOCC4)c3)CC2)C(C)(C)C)cc1` [CPD-043, (2S,4R)-1-((S)-2-(tert-butyl)-22-(4-(4-((5-(3,5-Difluorobenzyl)-1H-indazol-3-yl)carbamoyl)-3-((tetrahydro-2H-pyran-4-yl)amino)phenyl)piperazin-1-yl)-4,22-dioxo-7,10,13,16,19-pentaoxa-3-azadocosanoyl)-4-hydroxy-N-(4-(4-methylthiazol-5-yl)benzyl)pyrrolidine-2-carboxamide], for which the IC50 was more than 1000 nM.
Take `Cc1ncsc1-c1ccc(CNC(=O)[C@@H]2C[C@@H](O)CN2C(=O)[C@@H](NC(=O)CCCCC(=O)N2CCN(c3ccc(C(=O)Nc4n[nH]c5ccc(Cc6cc(F)cc(F)c6)cc45)c(NC4CCOCC4)c3)CC2)C(C)(C)C)cc1` [CPD-044, (2S,4R)-1-((S)-2-(6-(4-(4-((5-(3,5-difluorobenzyl)-1H-indazol-3-yl)carbamoyl)-3-((tetrahydro-2H-pyran-4-yl)amino)phenyl)piperazin-1-yl)-6-oxohexanamido)-3,3-dimethylbutanoyl)-4-hydroxy-N-(4-(4-methylthiazol-5-yl)benzyl)pyrrolidine-2-carboxamide]: the IC50 came out at 73 nM.
To `Cc1ncsc1-c1ccc(CNC(=O)[C@@H]2C[C@@H](O)CN2C(=O)[C@@H](NC(=O)COCC(=O)N2CCN(c3ccc(C(=O)Nc4n[nH]c5ccc(Cc6cc(F)cc(F)c6)cc45)c(NC4CCOCC4)c3)CC2)C(C)(C)C)cc1` [CPD-045, (2S,4R)-1-((S)-2-(2-(2-(4-(4-((5-(3,5-Difluorobenzyl)-1H-indazol-3-yl)carbamoyl)-3-((tetrahydro-2H-pyran-4-yl)amino)phenyl)piperazin-1-yl)-2-oxoethoxy)acetamido)-3,3-dimethylbutanoyl)-4-hydroxy-N-(4-(4-methylthiazol-5-yl)benzyl)pyrrolidine-2-carboxamide] belongs more than 1000 nM; to `Cc1ncsc1-c1ccc(CNC(=O)[C@@H]2C[C@@H](O)CN2C(=O)[C@@H](NC(=O)CCC(=O)N2CCN(c3ccc(C(=O)Nc4n[nH]c5ccc(Cc6cc(F)cc(F)c6)cc45)c(NC4CCOCC4)c3)CC2)C(C)(C)C)cc1` [CPD-046, (2S,4R)-1-((S)-2-(4-(4-(4-((5-(3,5-Difluorobenzyl)-1H-indazol-3-yl)carbamoyl)-3-((tetrahydro-2H-pyran-4-yl)amino)phenyl)piperazin-1-yl)-4-oxobutanamido)-3,3-dimethylbutanoyl)-4-hydroxy-N-(4-(4-methylthiazol-5-yl)benzyl)pyrrolidine-2-carboxamide], 700 nM; to `Cc1ncsc1-c1ccc(CNC(=O)[C@@H]2C[C@@H](O)CN2C(=O)[C@@H](NC(=O)CCCCCC(=O)N2CCN(c3ccc(C(=O)Nc4n[nH]c5ccc(Cc6cc(F)cc(F)c6)cc45)c(NC4CCOCC4)c3)CC2)C(C)(C)C)cc1` [CPD-047, (2S,4R)-1-((S)-2-(7-(4-(4-((5-(3,5-difluorobenzyl)-1H-indazol-3-yl)carbamoyl)-3-((tetrahydro-2H-pyran-4-yl)amino)phenyl)piperazin-1-yl)-7-oxoheptanamido)-3,3-dimethylbutanoyl)-4-hydroxy-N-(4-(4-methylthiazol-5-yl)benzyl)pyrrolidine-2-carboxamide], 94 nM.
Regarding `Cc1ncsc1-c1ccc(CNC(=O)[C@@H]2C[C@@H](O)CN2C(=O)[C@@H](NC(=O)CCOCCC(=O)N2CCN(c3ccc(C(=O)Nc4n[nH]c5ccc(Cc6cc(F)cc(F)c6)cc45)c(NC4CCOCC4)c3)CC2)C(C)(C)C)cc1` [CPD-048, (2S,4R)-1-((S)-2-(3-(3-(4-(4-((5-(3,5-Difluorobenzyl)-1H-indazol-3-yl)carbamoyl)-3-((tetrahydro-2H-pyran-4-yl)amino)phenyl)piperazin-1-yl)-3-oxopropoxy)propanamido)-3,3-dimethylbutanoyl)-4-hydroxy-N-(4-(4-methylthiazol-5-yl)benzyl)pyrrolidine-2-carboxamide], the IC50 is more than 1000 nM.
With `O=C1CCC(N2C(=O)c3cccc(NCCCCCCC(=O)N4CCN(c5ccc(C(=O)Nc6n[nH]c7ccc(Cc8cc(F)cc(F)c8)cc67)c(NC6CCOCC6)c5)CC4)c3C2=O)C(=O)N1` (stereo not shown) [CPD-049, N-(5-(3,5-difluorobenzyl)-1H-indazol-3-yl)-4-(4-(7-((2-(2,6-dioxopiperidin-3-yl)-1,3-dioxoisoindolin-4-yl)amino)heptanoyl)piperazin-1-yl)-2-((tetrahydro-2H-pyran-4-yl)amino)benzamide], the IC50 amounted to 73 nM.
In the case of `O=C1CCC(N2C(=O)c3cccc(NCCCCC(=O)N4CCN(c5ccc(C(=O)Nc6n[nH]c7ccc(Cc8cc(F)cc(F)c8)cc67)c(NC6CCOCC6)c5)CC4)c3C2=O)C(=O)N1` (stereo not shown) [CPD-050, N-(5-(3,5-difluorobenzyl)-1H-indazol-3-yl)-4-(4-(5-((2-(2,6-dioxopiperidin-3-yl)-1,3-dioxoisoindolin-4-yl)amino)pentanoyl)piperazin-1-yl)-2-((tetrahydro-2H-pyran-4-yl)amino)benzamide] it was 28 nM; in that of `O=C1CCC(N2C(=O)c3cccc(NCCC(=O)N4CCN(c5ccc(C(=O)Nc6n[nH]c7ccc(Cc8cc(F)cc(F)c8)cc67)c(NC6CCOCC6)c5)CC4)c3C2=O)C(=O)N1` (stereo not shown) [CPD-051, N-(5-(3,5-difluorobenzyl)-1H-indazol-3-yl)-4-(4-(3-((2-(2,6-dioxopiperidin-3-yl)-1,3-dioxoisoindolin-4-yl)amino)propanoyl)piperazin-1-yl)-2-((tetrahydro-2H-pyran-4-yl)amino)benzamide], 11 nM.
With `O=C1CCC(N2C(=O)c3cccc(NCCCCCCCC(=O)N4CCN(c5ccc(C(=O)Nc6n[nH]c7ccc(Cc8cc(F)cc(F)c8)cc67)c(NC6CCOCC6)c5)CC4)c3C2=O)C(=O)N1` (stereo not shown) [CPD-052, N-(5-(3,5-difluorobenzyl)-1H-indazol-3-yl)-4-(4-(8-((2-(2,6-dioxopiperidin-3-yl)-1,3-dioxoisoindolin-4-yl)amino)octanoyl)piperazin-1-yl)-2-((tetrahydro-2H-pyran-4-yl)amino)benzamide], the IC50 worked out at 60 nM.
